Assay results taken from ChEMBL document CHEMBL1201862, “PubChem BioAssay data set” (2004).
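Following 48 hours of exposure in 96-well plates, responses at five concentrations were used to interpolate endpoints linearly. At the GI50, growth is halved.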 Activity calls are given as the source filed them. No stated cut-off is given here; in the data, active = GI50 up to about 1.1 µM and inactive = higher.

Assays:
Assay in all cases: growth of human tumour cells (NCI), 48 h
CAKI-1 = tested on: CAKI-1
CCRF-CEM = tested on: CCRF-CEM
COLO 205 = tested on: COLO 205
HCT-116 = tested on: HCT-116
HOP-62 = tested on: HOP-62
HOP-92 = tested on: HOP-92
Hs-578T = tested on: Hs-578T
KM12 = tested on: KM12
LOX IMVI = tested on: LOX IMVI
MDA-MB-435 = tested on: MDA-MB-435
NCI-H23 = tested on: NCI-H23
NCI-H522 = tested on: NCI-H522
NCI/ADR-RES = tested on: NCI/ADR-RES
OVCAR-3 = tested on: OVCAR-3
RXF 393 = tested on: RXF 393
SF-295 = tested on: SF-295
SK-MEL-5 = tested on: SK-MEL-5
SN12C = tested on: SN12C
SNB-19 = tested on: SNB-19
UACC-257 = tested on: UACC-257

Structure (SMILES) | GI50 (CAKI-1) | GI50 (CCRF-CEM) | GI50 (COLO 205) | GI50 (HCT-116) | GI50 (HOP-62) | GI50 (HOP-92) | GI50 (Hs-578T) | GI50 (KM12) | GI50 (LOX IMVI) | GI50 (MDA-MB-435) | GI50 (NCI-H23) | GI50 (NCI-H522) | GI50 (NCI/ADR-RES) | GI50 (OVCAR-3) | GI50 (RXF 393) | GI50 (SF-295) | GI50 (SK-MEL-5) | GI50 (SN12C) | GI50 (SNB-19) | GI50 (UACC-257)
Cc1cc2c(cc1C)N1C(Cl)=C3CCCCC3=C(C#N)C1N2 (stereo not given) | 5.04 µM (inactive) | 2.48 µM (inactive) | 16.5 µM (inactive) | 1.7 µM (inactive) | 14.3 µM (inactive) | 7.4 µM (inactive) | 7.85 µM (inactive) | 9.02 µM (inactive) | 2.19 µM (inactive) | 6.03 µM (inactive) | 4.98 µM (inactive) | 2 µM (inactive) | 6.31 µM (inactive) | 16.7 µM (inactive) | 14 µM (inactive) | 20.4 µM (inactive) | 3.72 µM (inactive) | 4.71 µM (inactive) | 20.2 µM (inactive) | 8.18 µM (inactive)
NC(=O)C(C(N)=O)=C(O)/C(O)=C/C(=O)c1ccccc1 | > 100 µM (inactive) | 21.5 µM (inactive) | > 100 µM (inactive) | > 100 µM (inactive) | > 100 µM (inactive) | > 100 µM (inactive) | > 100 µM (inactive) | > 100 µM (inactive) | 89.9 µM (inactive) | > 100 µM (inactive) | > 100 µM (inactive) | 16.4 µM (inactive) | > 100 µM (inactive) | 51.4 µM (inactive) | > 100 µM (inactive) | > 100 µM (inactive) | 73.8 µM (inactive) | > 100 µM (inactive) | > 100 µM (inactive) | > 100 µM (inactive)
O=S(=O)(Nc1ccccc1S(=O)(=O)c1ccccc1)c1ccccc1 | > 100 µM (inactive) | 42.7 µM (inactive) | 38.1 µM (inactive) | 77.1 µM (inactive) | > 100 µM (inactive) | 76.9 µM (inactive) | 51.9 µM (inactive) | 56.8 µM (inactive) | > 100 µM (inactive) | > 100 µM (inactive) | 46.7 µM (inactive) | 41.2 µM (inactive) | 57.1 µM (inactive) | 65.6 µM (inactive) | > 100 µM (inactive) | 94.4 µM (inactive) | 58.6 µM (inactive) | > 100 µM (inactive) | > 100 µM (inactive) | 73.1 µM (inactive)
O=C(O)C[S+]([O-])c1ccc2c3c(cccc13)C(=O)c1ccccc1-2 (stereo not given) | > 100 µM (inactive) | > 100 µM (inactive) | > 100 µM (inactive) | > 100 µM (inactive) | > 100 µM (inactive) | > 100 µM (inactive) | > 100 µM (inactive) | > 100 µM (inactive) | > 100 µM (inactive) | > 100 µM (inactive) | > 100 µM (inactive) | > 100 µM (inactive) | > 100 µM (inactive) | > 100 µM (inactive) | > 100 µM (inactive) | > 100 µM (inactive) | > 100 µM (inactive) | > 100 µM (inactive) | > 100 µM (inactive) | > 100 µM (inactive)
[N-]=[N+]=Nc1c([N+](=O)[O-])c(=O)n(-c2ccccc2)c2ccccc12 | 21.5 µM (inactive) | 29.4 µM (inactive) | 21.1 µM (inactive) | 20.3 µM (inactive) | 43.7 µM (inactive) | 26.4 µM (inactive) | 20 µM (inactive) | 26.7 µM (inactive) | 17.5 µM (inactive) | 21 µM (inactive) | 22 µM (inactive) | 25.8 µM (inactive) | 20.7 µM (inactive) | 4.5 µM (inactive) | 20 µM (inactive) | 27.9 µM (inactive) | 24.2 µM (inactive) | 23.4 µM (inactive) | 32.3 µM (inactive) | 34.4 µM (inactive)
COc1cc2cc(C(=O)N3CC(CCl)c4ccc(NCCN)cc43)[nH]c2c(OC)c1OC (stereo not given) | 0.143 µM (active) | 0.0783 µM (active) | 0.222 µM (active) | 0.217 µM (active) | 0.166 µM (active) | 0.289 µM (active) | 0.472 µM (active) | 0.206 µM (active) | 0.155 µM (active) | 0.2 µM (active) | 0.0822 µM (active) | 0.046 µM (active) | 0.208 µM (active) | 0.236 µM (active) | 0.105 µM (active) | 0.197 µM (active) | 0.116 µM (active) | 0.237 µM (active) | 0.292 µM (active) | 0.251 µM (active)
CCCCCCCCCCCC(=O)N(CCCCCCCCCCC(=O)O)CC(O)C(O)C(OC1OC(CO)C(O)C(O)C1O)C(O)CO (stereo not given) | > 100 µM (inactive) | > 100 µM (inactive) | > 100 µM (inactive) | > 100 µM (inactive) | > 100 µM (inactive) | > 100 µM (inactive) | > 100 µM (inactive) | > 100 µM (inactive) | > 100 µM (inactive) | > 100 µM (inactive) | > 100 µM (inactive) | > 100 µM (inactive) | > 100 µM (inactive) | > 100 µM (inactive) | > 100 µM (inactive) | > 100 µM (inactive) | > 100 µM (inactive) | > 100 µM (inactive) | > 100 µM (inactive) | > 100 µM (inactive)
C=CCc1cccc2cc(C(=O)Nc3nc(C45CC6CC(CC(C6)C4)C5)cs3)c(=O)oc12 | 20.6 µM (inactive) | 64.3 µM (inactive) | 21.4 µM (inactive) | > 10 µM (inactive) | 17.8 µM (inactive) | 16 µM (inactive) | 16.4 µM (inactive) | 28.1 µM (inactive) | 19.4 µM (inactive) | 51.5 µM (inactive) | 18 µM (inactive) | 49.7 µM (inactive) | 27.2 µM (inactive) | 24.4 µM (inactive) | 6.08 µM (inactive) | 16.3 µM (inactive) | 40.8 µM (inactive) | 45.2 µM (inactive) | 26.1 µM (inactive) | 32.8 µM (inactive)
